From PubChem BioAssay (NCI)
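Dose response: 5 concentrations. Exposure: 48 h. Format: 96-well plates. Endpoint: linear interpolation; highest concentration if not reached. Here, GI50 denotes the concentration required for 50% inhibition of growth. TGI marks complete inhibition of growth.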

Columns and labels:
Experiment in all cases: NCI anticancer screen, dose series, 48 h
[1] = tested on: A549 NSCLC
[2] = tested on: COLO 205 colon
[3] = tested on: HS 578T breast
[4] = tested on: LOX IMVI melanoma
[5] = tested on: MDA-MB-435
[6] = tested on: MOLT-4 leukemia
[7] = tested on: NCI-H522 lung
[8] = tested on: OVCAR-3 ovarian
[9] = tested on: OVCAR-5 ovarian
[10] = tested on: U251 CNS

Row | Structure (SMILES) | GI50 [1] [µM] | TGI [1] [µM] | GI50 [2] [µM] | TGI [2] [µM] | GI50 [3] [µM] | TGI [3] [µM] | GI50 [4] [µM] | TGI [4] [µM] | GI50 [5] [µM] | TGI [5] [µM] | GI50 [6] [µM] | TGI [6] [µM] | GI50 [7] [µM] | TGI [7] [µM] | GI50 [8] [µM] | TGI [8] [µM] | GI50 [9] [µM] | TGI [9] [µM] | GI50 [10] [µM] | TGI [10] [µM]
1 | COc1ccc2c(c1)CC[C@@H]1[C@@H]2CC[C@]2(C)c3c(cc(C(=O)c4ccccc4)c4sccc34)C[C@@H]12 | > 100 | > 100 | > 100 | > 100 | > 100 | > 100 | > 100 | > 100 | > 100 | > 100 | > 100 | > 100 | > 100 | > 100 | > 100 | > 100 | 60.7 | > 100 | > 100 | > 100
2 | O=C1C=CC(=O)N1CCCCCCCCCCN1C(=O)C=CC1=O | 18.2 | 41.5 | 2.15 | 5.62 | 16.3 | 56.9 | 11.3 | 24.4 | 13.2 | 28.1 | 8.62 | 48.6 | 1.6 | 3.41 | 4.1 | 15.1 | 17.4 | 31.6 | 17 | 37.8
3 | O=C1[C@H](c2ccccc2)C2c3ccccc3CCN12 (some centres not stated) | > 100 | > 100 | > 100 | > 100 | > 100 | > 100 | > 100 | > 100 | > 100 | > 100 | > 100 | > 100 | > 100 | > 100 | > 100 | > 100 | > 100 | > 100 | > 100 | > 100
4 | O=C(Nc1cccc2ccccc12)c1cc2ccccc2cc1O | 2.52 | 8.31 | 9.76 | 23.7 | 1.74 | 6.43 | 2.72 | 12.2 | 1.87 | 5.05 | 3.08 | 21.5 | 1.66 | 4.83 | 2.16 | 6.85 | 3.32 | 13 | 1.56 | 4.72
5 | Cc1cccc2c(=O)c3c(sc12)c(NCCN)nc1ccccc13 | 0.823 | 1.63 | 0.826 | 1.65 | 1.5 | 4.78 | 0.783 | 1.48 | 0.911 | 1.67 | 0.887 | 1.8 | 0.863 | 1.75 | 0.888 | 1.79 | 0.834 | 1.6 | 0.84 | 1.59
6 | Cc1ccc(S(=O)(=O)N2C/C(=C\c3cc(F)cc(F)c3)C(=O)/C(=C/c3cc(F)cc(F)c3)C2)cc1 | 2.42 | 10.1 | 0.653 | 2.33 | 0.513 | > 43.1 | 0.175 | 0.339 | 0.236 | 0.653 | 0.299 | 2.11 | 0.26 | 0.721 | 0.408 | 1.27 | 0.713 | 2.28 | 0.178 | 0.452
7 | CCCNNC(=O)c1ccc(CNC(=O)/C=C/c2ccccc2)cc1 | 0.31 | > 100 | 0.0909 | 0.292 | 0.207 | > 20.8 | 0.139 | 0.306 | 0.2 | – | 0.106 | > 100 | 0.226 | > 100 | 0.246 | 1.8 | 0.104 | – | 0.198 | 1.71
8 | N=C(N)c1ccc(-c2ccc(-c3ccco3)o2)cc1F | 3.04 | 10.6 | 1.8 | 3.62 | 1.53 | 4.7 | 1.6 | 3.05 | 1.63 | 3.25 | 2.27 | 5.22 | 2.31 | 6 | 3.06 | 9.77 | 2.7 | 10.3 | 1.72 | 3.55
9 | CCOCC[P+](c1ccccc1)(c1ccccc1)c1ccccc1 | 16.4 | 87.8 | 11.7 | 26.5 | 21.7 | 99.5 | 15.3 | 42.3 | 9.26 | 51.9 | 31.4 | > 100 | 11.9 | 50.9 | 19.3 | > 100 | 25.9 | > 100 | 18.1 | 92.5
10 | Cc1cc(Cl)ccc1Nc1nc(C(F)(F)F)ccc1C(=O)N/N=C/c1c(Cl)cccc1Cl | 0.51 | > 100 | 0.358 | 1.24 | 0.63 | > 30 | 0.257 | > 100 | 0.357 | > 100 | 0.157 | 0.597 | 0.306 | – | 0.102 | 0.38 | 0.888 | > 100 | 0.245 | > 70.8
11 | COc1ccc(C2SC(C)C(=O)N2NC(=O)C(O)c2ccccc2)cc1 (configuration not stated) | > 100 | > 100 | > 100 | > 100 | > 100 | > 100 | > 100 | > 100 | > 100 | > 100 | > 100 | > 100 | > 100 | > 100 | > 100 | > 100 | > 100 | > 100 | > 100 | > 100
12 | COc1ccc(/C=C/C(=O)c2ccc(NC(=O)CSc3nnc(-c4cc(OC)c(OC)c(OC)c4)o3)cc2)cc1 | 1.84 | 3.53 | 1.94 | 3.84 | 2.65 | 7.76 | 0.32 | 1.28 | 1.7 | 3.4 | 2.05 | 5.27 | 1.55 | 3.22 | 1.78 | 3.38 | 1.72 | 3.3 | 1.68 | 3.18
13 | CNC(=S)N/N=C(/C)CCC/C(C)=N/NC(=S)NC | – | > 100 | – | > 100 | – | > 100 | – | 44.2 | – | > 100 | – | 0.303 | – | > 100 | – | > 93.2 | – | > 100 | – | > 100
14 | COC1(C)Cc2c(c(C)c(O)c3c2C(=O)C=C(Cl)C3=O)O1 (configuration not stated) | – | > 100 | – | 38.1 | – | > 100 | – | > 100 | – | > 100 | – | 46.2 | – | 33 | – | > 72.8 | – | > 100 | – | > 100
15 | O=C(CN/C=C\C(=O)c1cc(Cl)ccc1Cl)c1ccccc1 | 67 | > 100 | 34.9 | > 100 | 25.7 | 61.3 | 19.8 | 35.1 | 19.2 | 45 | > 100 | > 100 | 17.4 | 34.8 | 26 | 85.7 | 30.6 | > 100 | 33.1 | 99.6
16 | NNc1nc(-c2ccccn2)nc2sc3c(c12)CCCCCC3 | 3.18 | > 100 | 5.07 | > 100 | 11 | > 100 | 6.17 | > 100 | 5.17 | > 100 | 3.67 | 22.7 | 12.1 | 68.3 | 5.31 | 93.7 | 8.61 | > 100 | 4.5 | 49.6
17 | OCCCNC(=S)Nc1ccc(-c2nc3ccccc3s2)cc1 | 33.7 | > 100 | 30 | > 100 | 33 | > 100 | 17.9 | 38.2 | 17.9 | 50.8 | 16.7 | > 100 | 12.6 | 38.7 | 15 | 59.8 | 20.6 | 58.3 | 29.8 | > 100
18 | COc1ccc2c(c1)N(CCO)C1=C(C(=O)OC1)C2c1cccc(Br)c1 (configuration not stated) | 0.113 | 19.6 | 0.103 | 0.464 | 0.209 | > 100 | 0.0814 | 18.8 | 0.0225 | 0.0623 | 0.458 | > 100 | 0.0226 | 0.0693 | 0.0338 | 0.135 | 0.466 | > 100 | 0.0534 | 15.9
19 | CCOC(=O)C1=C(N)Oc2cc(OC)ccc2C1c1ccc(F)c(F)c1 (configuration not stated) | 2.08 | 19.4 | 1.05 | 8.97 | 2.48 | 21.3 | 1.36 | 19 | 0.229 | 0.844 | 1.58 | 22.3 | 0.498 | 10.2 | 0.497 | 6.09 | 10.5 | 24.1 | 1.84 | 14.3
20 | CCN1CCN(Cc2ccc3cc(C(=O)Nc4cc(NC(=O)c5ccc6c(c5)OCCO6)ccc4F)ccc3n2)CC1 | 0.0511 | 11.6 | 0.0553 | 1.51 | 0.0329 | 0.308 | 0.0343 | 1.43 | 0.0608 | 3.42 | 0.0504 | 2.23 | 0.0351 | 0.427 | 0.0567 | 0.766 | 0.0858 | 12.5 | 0.0464 | 11.4
21 | COc1ccc(/C=C2\CCCC3=C2N=C2SC=NN2C3c2ccc(OC)c(OC)c2)cc1OC (configuration not stated) | 30.5 | > 100 | 7.58 | > 100 | 28.2 | > 100 | 16.6 | 75.1 | 3.51 | 42.8 | 21.4 | > 100 | 17.9 | > 100 | 4.62 | 75.4 | 47.7 | > 100 | 22.7 | > 100
22 | COc1ccc2c(c1)c(=O)oc1cc(OC/C(=N\O)c3ccc(F)cc3)ccc12 | 27.8 | > 100 | 15.6 | 34.6 | 27 | 75.6 | 17.8 | 33 | 12.6 | 36.2 | 18.1 | > 100 | 14.9 | 37.8 | 20.4 | 47.4 | 34.4 | > 100 | 20.2 | 48.1
23 | Nc1nn(C(=O)Nc2ccc(Cc3ccccc3)cc2)c2ccccc12 | 12.9 | 48.6 | 13.4 | 37.7 | 17.2 | 71.8 | 0.477 | 16.1 | 2.82 | > 100 | 0.636 | 20.4 | 2.9 | > 100 | 6.23 | 63.1 | 31.3 | > 100 | 13.9 | 30.2
24 | COc1ccc(-c2oncc2-c2cc(OC)c3c(c2)OCO3)cc1 | 3.58 | > 100 | 2.8 | 10.4 | 2.49 | 21.2 | 4.01 | > 60.1 | 0.275 | 1.27 | 3.9 | > 92.6 | 1.44 | 5.77 | 3.15 | 39 | 5.14 | > 100 | 3.8 | > 87.3
25 | CC(=O)/C=C/c1ccc(N(C)Cc2ccc(C(C)(C)C)cc2)cc1 | 156 | 788 | 95.1 | 275 | 193 | 568 | 78.2 | 208 | 114 | 322 | 116 | 425 | 128 | 310 | 126 | 264 | 195 | 490 | 125 | 268
